The source made the active and inactive calls. The calls are words filed in the database; no cut-off is given here.
How the values were obtained:
A549 = test: Cytotoxicity against human A549 cells assessed as reduction in cell viability measured after 72 hrs by MTT assay; format: cell-based
[1] = target: Glycogen synthase kinase-3 beta (Homo sapiens, UniProt P49841); test: Inhibition of recombinant human GSK3beta using YRRAAVPPSPSLSRHSSPHQ(pS)EDEEE as substrate measured after 60 mins by ADP-Glo luminescence assay
Glycogen synthase kinase-3 beta, sequence (P49841 whole entry): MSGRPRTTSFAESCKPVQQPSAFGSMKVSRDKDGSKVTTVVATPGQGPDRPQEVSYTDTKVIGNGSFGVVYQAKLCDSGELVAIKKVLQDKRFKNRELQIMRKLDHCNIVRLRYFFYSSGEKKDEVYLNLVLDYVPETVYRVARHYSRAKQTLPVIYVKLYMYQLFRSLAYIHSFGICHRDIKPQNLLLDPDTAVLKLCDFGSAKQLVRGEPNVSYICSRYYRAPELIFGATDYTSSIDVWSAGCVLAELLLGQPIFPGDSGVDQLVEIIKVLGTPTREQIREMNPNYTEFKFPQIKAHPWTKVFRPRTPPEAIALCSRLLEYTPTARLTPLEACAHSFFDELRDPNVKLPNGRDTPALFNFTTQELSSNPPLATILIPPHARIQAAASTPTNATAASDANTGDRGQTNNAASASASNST

PBMC [2] = test: Cytotoxicity against human PBMC assessed as reduction in cell viability at 0.1 to 10 uM measured after 24 hrs by MTT assay; format: cell-based
PBMC [3] = test: Cytotoxicity against human PBMC assessed as reduction in cell viability at 10 uM measured after 24 hrs by MTT assay; format: cell-based
Rattus norvegicus [4] = test: Antidiabetic activity in […]/STZ-induced obese type-2 diabetes Wistar rat model assessed as reduction in blood glucose level at 50 mg/kg, ip pretreated for 30 mins followed by glucose challenge and measured up to 120 mins by OGTT; format: functional, organism-based
Rattus norvegicus [5] = test: Antidiabetic activity in […]/STZ-induced obese type-2 diabetes Wistar rat model assessed as reduction in blood glucose level at 10 mg/kg, ip pretreated for 30 mins followed by glucose challenge and measured up to 120 mins by OGTT; format: functional, organism-based
[6] = Homo sapiens, A549, 72 h, read-out: IC50

SMILES	IC50 (A549; [6]) [µM]	IC50 [1] [µM]	other results
O=C1Nc2ccc(Br)cc2C1=Cc1ccncc1 (mixture of isomers)	22.3	> 10	
CC[C@@]1(O)C(=O)OCc2c1cc1n(c2=O)Cc2cc3ccccc3nc2-1 [CAMPTOTHECIN]	3.32		
O=C1Nc2ccc(Br)cc2C1=Cc1ccco1 (mixture of isomers)	449	> 10	
COC(=O)Nc1ccc2c(c1)/C(=C/c1ccc(O)cc1)C(=O)N2			Activity (PBMC [2]): Non-Toxic; IC50 (A549; a549, read-out: IC50): 44.4 µM
O=C1Nc2ccc([N+](=O)[O-])cc2C1=Cc1ccncc1 (mixture of isomers)		> 10	IC50 (A549; a549): Non-Toxic
COc1ccc2c(c1)C(O)(CC(=O)c1ccc(C)cc1)C(=O)N2 (stereo not given)	> 100	> 10	
COc1cccc2c1C(=O)c1c(O)c3c(c(O)c1C2=O)C[C@@](O)(C(=O)CO)C[C@@H]3O[C@H]1C[C@H](N)[C@H](O)[C@H](C)O1 [DOXORUBICIN]	0.17		
N#CCC1(O)C(=O)Nc2ccc(NC(=O)c3ccccc3)cc21 (stereo not given)		> 10	
O=C1Nc2ccc(Br)cc2C1=Cc1ccc(Br)cc1 (mixture of isomers)	242	> 10	
O=C1Nc2ccc(NC(=O)c3ccccc3)cc2/C1=C/c1ccc(O)cc1		4.34	Activity (PBMC [3]): Toxic; IC50 (A549; a549, read-out: IC50): 412 µM
COc1ccc2c(c1)/C(=C/C(=O)O)C(=O)N2		> 10	
O=C1Nc2ccc([N+](=O)[O-])cc2C1=Cc1cccnc1 (mixture of isomers)		> 10	IC50 (A549; a549, read-out: IC50): 429 µM
O=C1Nc2ccccc2/C1=C/c1ccco1	595	> 10	
O=C1Nc2ccccc2C1=Cc1ccncc1 (mixture of isomers)	80.3	> 10	
O=C1Nc2ccccc2C12CC2c1ccccn1 (stereo not given)	> 100	1.23	Activity (PBMC [2]): Non-Toxic
O=C1Nc2ccc([N+](=O)[O-])cc2/C1=C/c1ccco1		12.8	IC50 (A549; a549, read-out: IC50): 329 µM
O=C1Nc2ccccc2/C1=C/c1cccs1	491	> 10	
COC(=O)Nc1ccc2c(c1)/C(=C/c1ccc(Br)cc1)C(=O)N2	> 100	> 10	
COc1ccc(C(=O)CC2(O)C(=O)Nc3ccc(Br)cc32)cc1 (stereo not given)	474	> 10	

SMILES	IC50 (A549; [6]) [µM]	IC50 [1] [µM]	other results
Cc1ccc(C(=O)CC2(O)C(=O)Nc3ccccc32)cc1 (stereo not given)	171	> 10	
COC(=O)Nc1ccc2c(c1)C(=Cc1ccc([N+](=O)[O-])cc1)C(=O)N2 (mixture of isomers)			Activity (PBMC [2]): Non-Toxic; IC50 (A549; a549, read-out: IC50): > 100 µM
O=C1Nc2ccccc2C1=Cc1cccnc1 (mixture of isomers)		> 10	IC50 (A549; a549, read-out: IC50): 67.5 µM
O=C1Nc2ccc(Br)cc2C1=Cc1cccs1 (mixture of isomers)	427	> 10	
COc1cc(/C=C2\C(=O)Nc3ccc(NC(C)=O)cc32)cc(OC)c1OC			Activity (PBMC [2]): Non-Toxic; IC50 (A549; a549, read-out: IC50): 149 µM
CC(=O)Nc1ccc2c(c1)/C(=C/c1cccc(O)c1)C(=O)N2	176	> 10	
COc1ccc2c(c1)/C(=C/C#N)C(=O)N2Cc1ccccc1		> 10	
O=C1Nc2ccc(Br)cc2C1=Cc1cccnc1 (mixture of isomers)	31.4	> 10	
CCC(=O)Nc1cc(NC(=O)CC)c2c(c1)C(CC#N)(OC(=O)CC)C(=O)N2 (stereo not given)		> 10	
O=C1Nc2ccccc2/C1=C/c1ccccn1	48	0.00419	Activity (Rattus norvegicus [4]): Active; Activity (PBMC [2]): Non-Toxic
O=C1Nc2ccc(Br)cc2/C1=C\c1ccccn1	90.6	> 10	
COc1cc(NC(C)=O)c2c(c1)C(CC#N)(OC(C)=O)C(=O)N2 (stereo not given)		> 10	
O=C1Nc2ccc([N+](=O)[O-])cc2/C1=C\c1ccccn1		20	IC50 (A549; a549): Non-Toxic
Cc1ccc(C(=O)CC2(O)C(=O)Nc3ccc(Br)cc32)cc1 (stereo not given)	> 100	> 10	
COc1cccc2c1C(=O)c1c(O)c3c(c(O)c1C2=O)C[C@@](O)(C(C)=O)C[C@@H]3O[C@H]1C[C@H](N)[C@H](O)[C@H](C)O1 [DAUNORUBICIN]	0.15		
CC(=O)Nc1ccc2c(c1)C(CC(=O)O)(OC(C)=O)C(=O)N2 (stereo not given)		> 10	
N#C[C@@H]1CCCN1C(=O)CNC12CC3CC(CC(O)(C3)C1)C2			Activity (Rattus norvegicus [5]): Active
COc1ccc(C(=O)CC2(O)C(=O)Nc3ccccc32)cc1 (stereo not given)	> 100	> 10	
Cc1ccc(C(=O)/C=C2\C(=O)Nc3ccccc32)cc1	18.7	> 10	

Reference: ChEMBL document CHEMBL4392829, “Synthesis and biological evaluation of 3-substituted 2-oxindole derivatives as new glycogen synthase kinase 3β inhibitors” (Bioorg Med Chem, 2019)
